Where two headings read alike, the source gives them in different places.

These results are taken from US7507739B2, “6-[(substituted)phenyl]triazolopyrimidines as anticancer agents” (Wyeth, priority 2003, dated 2009).

For one assay, the system named is HL-60/ADR cells. The assay can be described thus: MTS cytotoxicity test with HL-60/ADR cells (MRP1). The format is cell-based, human. To be noted: for IC50: Homo sapiens, HL60/ADR, read-out: IC50 HL-60/ADR; for Ratio: IC50 on HL-60/ADR cells/IC50 on HL-60 cells. An excerpt: Human cancer cell lines, unless otherwise noted, are obtained from the American Type Culture Collection (Rockville, Md.). The following drug-sensitive parental cell lines, and their derived drug-resistant counterparts, are obtained from the originators as listed: (a) S1 (parental line from a subclone of human colon carcinoma line LS174T) and derived S1-M1-3.2 (herein called S1-M1) which expresses the MXR drug transporter protein, are provided by Dr. L. Greenberger, Wyeth Research (Rabindran, S. K., He, H., Singh, M., Brown, E., Collins, K. I., Annable, T., and Greenberger, L. M. Reversal of a novel multidrug resistance mechanism in human colon carcinoma cells by fumitremorgin C. Cancer Res., 58:5850-5858,1998); (b) parental HL-60 human promyelocytic leukemia line and derived HL-60/ADR, which expresses the MRP1 drug transporter protein, are provided by Dr. M. Center, University of Kansas (McGrath, T., and Center, M. S. Adriamycin resistance in HL60 cells in the absence of detectable P-glycoprotein. Biochem. Biophys. […] J. Biol. Chem., 261: 7762-7770,1986) via Dr. L. Greenberger, Wyeth Research.
The assay, which is sold in kit form by Promega (Madison, Wis.; CellTiter 96 AQueous Non-Radioactive Cell Proliferation Assay), is based on the conversion by viable cells, but not by dead cells, of the tetrazolium salt, MTS (3-(4,5-dimethylthiazol-2-yl)-5-(3-carboxymethoxyphenyl)-2-(4-sulphophenyl)-2H-tetrazolium, inner salt), into a water-soluble colored formazan which is detected by spectrophotometry. Compounds are tested at nine concentrations, in order to determine IC50 values. For the test procedure, cells are harvested by trypsinization (or, in the case of non-adherent cells, by simple resuspension), washed, counted and distributed to wells of 96-well flat-bottom microtiter plates at 1000 cells per well in 200 μL of medium. In addition, one row of wells on a separate plate received cells as above (“time 0” plate). All plates are incubated at 37° in humidified 5% CO2 in air for about 24 hr.
On day 2, compounds for test are diluted and added to wells. Compounds are dissolved in DMSO at 10 mg/mL. For each compound, nine serial 2-fold dilutions are prepared in DMSO. Ten μL of each dilution in DMSO is transferred to 100 μL of medium, mixed well, and then 5 μL of this dilution is transferred in quadruplicate to wells containing cells. […] Plates are returned to the incubator for three days. At the time of drug addition to the experimental plates, the MTS assay is run on the “time 0” plate. This produced the “time 0 MTS value” which is related to the number of viable cells per well at the time of drug addition.
After three days of culture with test compounds (day 5 overall), the MTS assay is done on all wells of the experimental plates. The absorbance values of the quadruplicate sample wells are averaged and divided by the average of the “time 0” values. […] The nine values for each compound are plotted against concentration, and the concentration that produced a relative color yield half way between the maximum and minimum is taken as the IC50 value.
HL-60/ADR cells overexpress the multidrug resistance protein MRP1 which mediates resistance to some chemotherapeutics (Gottesman, M. M., Fojo, T., and Bates, S. E. Multidrug resistance in cancer: role of ATP-dependent transporters. Nature Rev. Cancer, 2: 48-58, 2002). The IC50 values of representative examples of this invention, as well as reference compounds, on HL-60/ADR are compared to values on the sensitive parental HL-60 line.

A further assay deals with microtubules. The experiment in a line: Competitive binding test, [3H]paclitaxel. Also on record: species or system bovine. To be noted: [3H]paclitaxel 2.1 μM, competitor 20 μM (5 μM for unlabeled paclitaxel). As for the experimental part:
(§1) Medium is RPMI-1640 with L-glutamine, supplemented with 10% heat-inactivated fetal calf serum, 100 units/ml penicillin, and 100 μg/ml streptomycin (Gibco, Grand Island, N.Y.). Microtubule-associated protein (MAP)-rich tubulin, containing about 70% tubulin and 30% MAPs (#ML113), and highly purified tubulin (>99% pure, #TL238), both from bovine brain, are obtained from Cytoskeleton, Inc., Denver, Colo. PEM buffer (80 mM piperazine-N,N′-bis[2-ethanesulfonic acid], pH 6.9, 1 mM ethylene glycol-bis(β-aminoethyl ether)-N,N,N′,N′-tetraacetic acid, 1 mM magnesium chloride) and guanosine 5′-triphosphate (GTP) are also obtained from Cytoskeleton. [3H]paclitaxel, specific activity 14.7 Ci/mmol, is purchased from Moravek Biochemicals (Brea, Calif.). [^3H]vinblastine, specific activity 9.60 Ci/mmol and MicroSpin G-50 columns are obtained from Amersham Biosciences (Piscataway, N.J.). […] Other reagents are obtained from Sigma (St. Louis, Mo.).
(§2) The binding of examples of this invention to highly purified tubulin is studied by competitive inhibition methods. […] To study possible competition at the taxane site, on the other hand, polymerized tubulin (microtubules) is used because paclitaxel binds preferentially to microtubules.
For competition with [^3H]paclitaxel, highly purified tubulin is dissolved in PEM buffer containing 0.75 M glutamate and 25 μM dideoxy-GTP; final protein concentration is 0.25 to 0.35 mg/mL (2.5 to 3.5 μM). These conditions foster the rapid formation of short, stable microtubule polymers (Hamel, E., del Campo, A. A., and Lin, C. M. Stability of tubulin polymers formed with dideoxyguanosine nucleotides in the presence and absence of microtubule-associated proteins. J. Biol. Chem., 259: 2501-2508, 1984). This solution is incubated for 30 min at 37° to allow microtubules to form. Then [^3H]paclitaxel (final concentration of 2.1 μM, 1.2 Ci/mmol) and competitor (final concentration of 20 μM, except 5 μM for unlabeled paclitaxel) are added to aliquots of the polymerized tubulin solution and incubation at 37° is continued for another 30 min. […] The reactions are then centrifuged at top speed in an Eppendorf 5415C microfuge for 20 min at room temperature in order to pellet the microtubule protein. Triplicate aliquots of each supernatant are mixed with scintillation fluid and counted in a liquid scintillation spectrometer. From the amount of radioactivity in the supernatants and the measured total starting radioactivity, the amount of [^3H]paclitaxel bound to pelleted microtubule protein is calculated. The ability of each competitor to inhibit radioligand binding to pelleted protein is expressed as a percent of controls without any competitor.

The subject of the next assay is tubulin heterodimer. The assay can be described thus: Competitive binding test, [3H]vinblastine. To be noted: [3H]vinblastine 100 nM. Also on record: species or system bovine. On the procedure: as §1, §2
Highly purified tubulin is dissolved in PEM buffer without GTP and used at a final concentration of 1.0 to 1.3 mg/ml (10 to 13 μM). […] These solutions are incubated at 24° for 1 hr and then applied to MicroSpin G-50 columns which are centrifuged for 2 min at 3000 rpm in an Eppendorf 5415C microfuge. An aliquot of each column effluent (containing tubulin and bound radioligand) is mixed with scintillation fluid and counted in a liquid scintillation spectrometer. […] The ability of the competitor to inhibit the binding of the radioligand is expressed as a percentage of control binding in the absence of any competitor.

Regarding `CNCCCOc1cc(F)c(-c2c(Cl)nc3ncnn3c2N[C@@H](C)C(F)(F)F)c(F)c1.Cl` [Example 2a, 5-Chloro-6-{2,6-difluoro-4-[3-(methylamino)propoxy]phenyl}-N-[(1S)-2,2,2-trifluoro-1-methylethyl][1,2,4]triazolo[1,5-a]pyrimidin-7-amine hydrogen chloride], in the assay with HL-60/ADR cells, the IC50 came out at 47 nM and the Ratio came to 1.1. Further, in the assay on microtubules, the “[3H]Paclitaxel binding, percent of control without competitor, Mean” value is given as 104%. For the same molecule, the “[3H]Vinblastine binding, percent of control without competitor, Mean” value with tubulin heterodimer is on record as 11%.
In the case of `C[C@H](Nc1c(-c2c(F)cc(OCCCN(C)C)cc2F)c(Br)nc2ncnn12)C(F)(F)F` [Example 25, 5-Bromo-6-{4-[3-(dimethylamino)propoxy]-2,6-difluorophenyl}-N-[(1S)-2,2,2-trifluoro-1-methylethyl][1,2,4]triazolo[1,5-a]pyrimidin-7-amine], the IC50 in the assay on HL-60/ADR cells (HL-60/ADR cells, MTS) came to 68 nM. The Ratio in the assay on HL-60/ADR cells stood at 0.65. Further, in the assay with microtubules, the “[3H]Paclitaxel binding, percent of control without competitor, Mean” value stood at 99%. The “[3H]Vinblastine binding, percent of control without competitor, Mean” value with tubulin heterodimer is listed as 14%.
Consider `C[C@H](Nc1c(-c2c(F)cc(OCCCO)cc2F)c(Cl)nc2ncnn12)C(F)(F)F` [Example 20, 3-[4-(5-Chloro-7-{[(1S)-2,2,2-trifluoro-1-methylethyl]amino}[1,2,4]triazolo[1,5-a]pyrimidin-6-yl)-3,5-difluorophenoxy]propan-1-ol], for which, in the assay with HL-60/ADR cells (HL-60/ADR cells, MTS), the IC50 amounted to 74 nM. Moreover, the Ratio in the assay with HL-60/ADR cells is 0.48. Also, in the assay on microtubules, the “[3H]Paclitaxel binding, percent of control without competitor, Mean” value was determined as 104%. Also, in the assay with tubulin heterodimer, the “[3H]Vinblastine binding, percent of control without competitor, Mean” value is listed as 19%.
For `CC(=O)O[C@H]1C(=O)[C@@]2(C)[C@H]([C@H](OC(=O)c3ccccc3)[C@]3(O)C[C@H](OC(=O)[C@H](O)[C@@H](NC(=O)c4ccccc4)c4ccccc4)C(C)=C1C3(C)C)[C@]1(OC(C)=O)CO[C@@H]1C[C@@H]2O` [Paclitaxel, reference compound] the same measures were 6.4 nM, 1.1, 35% and 92%.
For the molecule `CNCCCOc1cc(F)c(-c2c(Cl)nc3ncnn3c2NCC(F)(F)F)c(F)c1.Cl` [Example 3a, 5-Chloro-6-{2,6-difluoro-4-[3-(methylamino)propoxy]phenyl}-N-(2,2,2-trifluoroethyl)[1,2,4]triazolo[1,5-a]pyrimidin-7-amine hydrogen chloride Salt], in the assay with HL-60/ADR cells (HL-60/ADR cells, MTS), the IC50 was found to be 21 nM. In the assay with HL-60/ADR cells, the Ratio came to 0.81. The “[3H]Paclitaxel binding, percent of control without competitor, Mean” value in the assay on microtubules is given as 105%. Further, the “[3H]Vinblastine binding, percent of control without competitor, Mean” value in the assay with tubulin heterodimer worked out at 11%.
Consider `CN(C)CCCOc1cc(F)c(-c2c(Cl)nc3ncnn3c2NCC(F)(F)F)c(F)c1.Cl` [Example 4a, 5-Chloro-6-{4-[3-(dimethylamino)propoxy]-2,6-difluorophenyl}-N-(2,2,2-trifluoroethyl)[1,2,4]triazolo[1,5-a]pyrimidin-7-amine Hydrogen chloride Salt], for which the IC50 in the assay on HL-60/ADR cells (HL-60/ADR cells, MTS) is 34 nM. Also, in the assay on HL-60/ADR cells, the Ratio worked out at 0.65. In addition, the “[3H]Paclitaxel binding, percent of control without competitor, Mean” value with microtubules came to 104%. Also, the “[3H]Vinblastine binding, percent of control without competitor, Mean” value with tubulin heterodimer turned out to be 15%.
As to `OCCCOc1cc(F)c(-c2c(Cl)nc3ncnn3c2C2CCCCCC2)c(F)c1` [Example 30, 3-[4-(5-Chloro-7-cycloheptyl[1,2,4]triazolo[1,5-a]pyrimidin-6-yl)-3,5-difluorophenoxy]propan-1-ol], in the assay on HL-60/ADR cells (HL-60/ADR cells, MTS), the IC50 was determined as 52 nM. Also, in the assay with HL-60/ADR cells, the Ratio was found to be 0.94. For the same molecule, the “[3H]Paclitaxel binding, percent of control without competitor, Mean” value in the assay on microtubules is reported as 91%. In addition, in the assay on tubulin heterodimer, the “[3H]Vinblastine binding, percent of control without competitor, Mean” value is 14%.
Take `C[C@H](Nc1c(-c2c(F)cc(OCCCN(C)C)cc2F)c(Cl)nc2ncnn12)C(F)(F)F.Cl` [Example 1a, 5-chloro-6-{4-[3-(dimethylamino)propoxy]-2,6-difluorophenyl}-N-[(1S)-2,2,2-trifluoro-1-methylethyl][1,2,4]triazolo[1,5-a]pyrimidin-7-amine hydrogen chloride Salt]: in the assay on HL-60/ADR cells, the IC50 came to 63 nM and the Ratio is listed as 0.89. Besides, in the assay on microtubules, the “[3H]Paclitaxel binding, percent of control without competitor, Mean” value was 108%. For the same molecule, the “[3H]Vinblastine binding, percent of control without competitor, Mean” value in the assay on tubulin heterodimer is 12%.
Take `CC[C@]1(O)C[C@H]2CN(CCc3c([nH]c4ccccc34)[C@@](C(=O)OC)(c3cc4c(cc3OC)N(C=O)[C@H]3[C@@](O)(C(=O)OC)[C@H](OC(C)=O)[C@]5(CC)C=CCN6CC[C@]43[C@@H]65)C2)C1` [Vincristine, reference compound]: the IC50 with HL-60/ADR cells (HL-60/ADR cells, MTS) was found to be 20 nM. Besides, in the assay with HL-60/ADR cells, the Ratio was determined as 8.2. In addition, the “[3H]Paclitaxel binding, percent of control without competitor, Mean” value with microtubules was 22%. For the same molecule, in the assay on tubulin heterodimer, the “[3H]Vinblastine binding, percent of control without competitor, Mean” value worked out at 5%.
As for `CNCCCOc1cc(F)c(-c2c(Cl)nc3ncnn3c2C2CCCCCC2)c(F)c1.O=C(O)C(F)(F)F` [Example 32, 3-[4-(5-Chloro-7-cycloheptyl[1,2,4]triazolo[1,5-a]pyrimidin-6-yl)-3,5-difluorophenoxy]-N-methylpropan-1-amine trifluoroacetic acid salt], the IC50 in the assay with HL-60/ADR cells (HL-60/ADR cells, MTS) was 6.6 nM. Also, the Ratio with HL-60/ADR cells turned out to be 0.92. In the assay on microtubules, the “[3H]Paclitaxel binding, percent of control without competitor, Mean” value is 93%. Besides, the “[3H]Vinblastine binding, percent of control without competitor, Mean” value in the assay on tubulin heterodimer was determined as 15%.
